The NIST ThermoML archive (doi:10.1021/je049721u)
Values joined by “and” are separate entries in the source; they are usually repeats but may differ in a detail not shown here. Equal entries are not always repeated. Numbers after ± are expanded uncertainties.

Legend:
[1] = 101.3 kPa, Liquid
[2] = mn = molality of the nth substance listed, in mol/kg; details: 101.3 kPa, Liquid, m2 = 0

In the case of `CN(C)C=O` [dimethylformamide], the mass density ([1]; 283.15 K) is reported as 958.077 ± 0.58 kg/m3 and 958.163 ± 0.58 kg/m3 and 958.075 ± 0.58 kg/m3, the mass density ([1]; 293.15 K) is reported as 948.565 ± 0.58 kg/m3 and 948.653 ± 0.59 kg/m3 and the mass density ([1]; 298.15 K) is reported as 943.797 ± 0.59 kg/m3 and 943.884 ± 0.59 kg/m3. The mass density ([1]; 303.15 K) was 939.017 ± 0.59 kg/m3 and 939.114 ± 0.59 kg/m3, the mass density ([1]; 313.15 K) was 929.529 ± 0.6 kg/m3 and 929.437 ± 0.6 kg/m3 and the mass density ([1]; 323.15 K) was 919.807 ± 0.6 kg/m3 and 919.9 ± 0.61 kg/m3. For the same compound, the mass density ([1]; 333.15 K) was 910.12 ± 0.61 kg/m3 and 910.2 ± 0.61 kg/m3.
In the case of `CN(C)C=O` [dimethylformamide] + [Co+2].[O-][Cl+3]([O-])([O-])[O-].[O-][Cl+3]([O-])([O-])[O-], the mass density ([2]; 283.15 K) is reported as 958.163 ± 0.58 kg/m3, the mass density ([2]; 293.15 K) is reported as 948.653 ± 0.59 kg/m3 and the mass density ([2]; 298.15 K) is reported as 943.884 ± 0.59 kg/m3. The mass density ([2]; 303.15 K) was 939.114 ± 0.59 kg/m3, the mass density ([2]; 313.15 K) was 929.529 ± 0.6 kg/m3 and the mass density ([2]; 323.15 K) was 919.9 ± 0.61 kg/m3. The mass density ([2]; 333.15 K) was 910.2 ± 0.61 kg/m3.
`CN(C)C=O` [dimethylformamide] + [Cu+2].[O-][Cl+3]([O-])([O-])[O-].[O-][Cl+3]([O-])([O-])[O-] gave a mass density ([2]; 283.15 K) of 958.075 ± 0.58 kg/m3, a mass density ([2]; 293.15 K) of 948.565 ± 0.59 kg/m3 and a mass density ([2]; 298.15 K) of 943.797 ± 0.59 kg/m3. For the same compound, the mass density ([2]; 303.15 K) was 939.017 ± 0.59 kg/m3, the mass density ([2]; 313.15 K) was 929.437 ± 0.6 kg/m3 and the mass density ([2]; 323.15 K) was 919.807 ± 0.61 kg/m3. The mass density ([2]; 333.15 K) was 910.12 ± 0.61 kg/m3.
Compound `CN(C)C=O` [dimethylformamide] + [Mn+2].[O-][Cl+3]([O-])([O-])[O-].[O-][Cl+3]([O-])([O-])[O-] has a mass density ([2]; 283.15 K) of 958.077 ± 0.58 kg/m3, a mass density ([2]; 293.15 K) of 948.565 ± 0.58 kg/m3 and a mass density ([2]; 298.15 K) of 943.797 ± 0.59 kg/m3. For the same compound, the mass density ([2]; 303.15 K) was 939.017 ± 0.59 kg/m3, the mass density ([2]; 313.15 K) was 929.437 ± 0.6 kg/m3 and the mass density ([2]; 323.15 K) was 919.807 ± 0.6 kg/m3. For the same compound, the mass density ([2]; 333.15 K) was 910.12 ± 0.61 kg/m3.
For `CN(C)C=O` [dimethylformamide] + [Ni+2].[O-][Cl+3]([O-])([O-])[O-].[O-][Cl+3]([O-])([O-])[O-], the mass density ([2]; 283.15 K) was 958.163 ± 0.58 kg/m3, the mass density ([2]; 293.15 K) was 948.653 ± 0.59 kg/m3 and the mass density ([2]; 298.15 K) was 943.884 ± 0.59 kg/m3. For the same compound, the mass density ([2]; 303.15 K) was 939.114 ± 0.59 kg/m3, the mass density ([2]; 313.15 K) was 929.529 ± 0.6 kg/m3 and the mass density ([2]; 323.15 K) was 919.9 ± 0.61 kg/m3. The mass density ([2]; 333.15 K) was 910.2 ± 0.61 kg/m3.
In the case of `CN(C)C=O` [dimethylformamide] + [O-][Cl+3]([O-])([O-])[O-].[O-][Cl+3]([O-])([O-])[O-].[Zn+2], the mass density ([2]; 283.15 K) is reported as 958.163 ± 0.58 kg/m3, the mass density ([2]; 293.15 K) is reported as 948.653 ± 0.59 kg/m3 and the mass density ([2]; 298.15 K) is reported as 943.884 ± 0.59 kg/m3. The mass density ([2]; 303.15 K) was 939.114 ± 0.59 kg/m3, the mass density ([2]; 313.15 K) was 929.529 ± 0.6 kg/m3 and the mass density ([2]; 323.15 K) was 919.9 ± 0.61 kg/m3. It also gave a mass density ([2]; 333.15 K) of 910.2 ± 0.61 kg/m3.
